Drawing on patent US11932641B1, “Pyrido[4′,3′:4,5]pyrrolo[3,2-b][1,7]naphthyridine compounds as CK2 inhibitors” (KING FAISAL UNIVERSITY, priority 2023, dated 2024), this text covers IC50 for one molecule.

Each structure is given as a SMILES string.

Experiment [1] deals with T1, recombinant human CK2 (RRββ-holoenzyme) (Homo sapiens, UniProt P68400).
T1 construct: purchased Millipore
Description: CK2 kinase assay (33P-ATP, filter plate). Particulars: final ATP 15 μM, 10 min at 30° C.; read-out: protein kinase CK2 IC50. Type of experiment: biochemical. How it is done: CK2 Kinase Assay was conducted using the protocol as described in Pierre F. et al; J. Med Chem. 2011, 54, 635-654. The tested compounds in aqueous solution were added at a volume of 10 μL to a reaction mixture comprising 10 μL of assay dilution buffer (ADB; 20 mM MOPS, pH 7.2, 25 mM β-glycerol phosphate, 5 mM EGTA, 1 mM sodium orthovanadate, and 1 mM dithiothreitol), 10 μL of substrate peptide (RRRDDDSDDD, dissolved in ADB at a concentration of 1 mM), 10 μL of recombinant human CK2 (RRββ-holoenzyme, 25 ng dissolved in ADB; Millipore). Reactions were initiated by the addition of 10 μL of ATP solution (90% 75 mMMgCl2, 75 μM ATP (final ATP concentration: 15 μM) dissolved in ADB; 10% [γ-33P] ATP (stock 1 mCi/100 μL; 3000 Ci/mmol (Perkin-Elmer) and maintained for 10 min at 30° C. The reactions were quenched with 100 μL of 0.75% phosphoric acid and then transferred to and filtered through a phosphor cellulose filter plate (Millipore). After washing each well five times with 0.75% phosphoric acid, the plate was dried under vacuum for 5 min and, following the addition of 15 μL of scintillation fluid to each well, the residual radioactivity was measured using a Wallac […]. The IC50 values were derived from eight concentrations of test inhibitors.

Another experiment has as its system H1299 (lung). Description: In vitro cytotoxic activity (MTT) assay, H1299. Type of experiment: cell-based. As to conditions: Homo sapiens, NCI-H1299; H1299 (lung) cells, 96 hours exposure; read-out: IC50, 50% inhibition of cell proliferation. How it is done:
(§1) Compounds 1-12 were screened for their in vitro cytotoxic activity utilizing a 3-(4,5-dimethyl-thiazol-2-yl)-2,5-diphenyltetrazolium bromide (MTT) assay against selected cancer human cell lines consisting of PC3 (prostate), HCT116 (colon), A375 (melanoma), H1299 (lung), MIAPaCa-2 (pancreas), HL60 (leukemia), MCF7 (breast), MDA-MB-231 (breast) (T. Mosmann, J. Immunol. Meth., 1983, 65, 55-63). The cells were cultured at 37° C. in RMPI1640 medium supplemented with 10% fetal bovine serum, 50 IU/mL penicillin, and 50 μg/mL streptomycin in a 5% CO2 incubator. All cells were sub-cultured 3 times/week by trypsinisation. Viable cells were seeded and allowed to adhere for 12 h before a test drug was added in 96-well plates at an initial density of 1.0×10^5 cells/mL. Tumour cell lines were separately exposed to various concentrations of the tested compounds followed by incubation at a temperature of 37° C. during 96 h inside a medium of fresh RMPI 1640. Cells were subsequently incubated at 37° C. using MTT at 0.5 mg/mL during 4 h. After removal of supernatant, formazan crystals were dissolved in isopropanol and the optical density was measured at 570 nm. CX-4945 was used as a positive control.

The next experiment concerns MCF7 (breast). The experiment can be described thus: In vitro cytotoxic activity (MTT) assay, MCF7. Particulars: Homo sapiens; MCF7 (breast) cells, 96 hours exposure; read-out: IC50, 50% inhibition of cell proliferation. Type of experiment: cell-based. How it is done:
as §1

For a further experiment, the system named is HCT116 (colon). Description: In vitro cytotoxic activity (MTT) assay, HCT116. Type of experiment: cell-based. As to conditions: Homo sapiens, HCT-116; HCT116 (colon) cells, 96 hours exposure; read-out: IC50, 50% inhibition of cell proliferation. How it is done: as §1
A further experiment concerns HL60 (leukemia). The experiment can be described thus: In vitro cytotoxic activity (MTT) assay, HL60. Type of experiment: cell-based. As to conditions: Homo sapiens, HL-60; HL60 (leukemia) cells, 96 hours exposure; read-out: IC50, 50% inhibition of cell proliferation. How it is done: as §1
The subject of a further experiment is A375 (melanoma). The experiment can be described thus: In vitro cytotoxic activity (MTT) assay, A375. Type of experiment: cell-based. Particulars: Homo sapiens, A-375; A375 (melanoma) cells, 96 hours exposure; read-out: IC50, 50% inhibition of cell proliferation. The procedure: as §1
The subject of a further experiment is MDA-MB-231 (breast). Description: In vitro cytotoxic activity (MTT) assay, MDA-MB-231. Particulars: Homo sapiens; MDA-MB-231 (breast) cells, 96 hours exposure; read-out: IC50, 50% inhibition of cell proliferation. Type of experiment: cell-based. How it is done: as §1
The next experiment relates to MIAPaCa-2 (pancreas). The experiment can be described thus: In vitro cytotoxic activity (MTT) assay, MIAPaCa-2. It counts as cell-based. As to conditions: Homo sapiens, MIA PaCa-2; MIAPaCa-2 (pancreas) cells, 96 hours exposure; read-out: IC50, 50% inhibition of cell proliferation. How it is done: as §1
The next experiment deals with PC3 (prostate). The experiment can be described thus: In vitro cytotoxic activity (MTT) assay, PC3. It counts as cell-based. As to conditions: Homo sapiens, Prostate cell; PC3 (prostate) cells, 96 hours exposure; read-out: IC50, 50% inhibition of cell proliferation. The procedure: as §1

T1 sequence (P68400 whole entry): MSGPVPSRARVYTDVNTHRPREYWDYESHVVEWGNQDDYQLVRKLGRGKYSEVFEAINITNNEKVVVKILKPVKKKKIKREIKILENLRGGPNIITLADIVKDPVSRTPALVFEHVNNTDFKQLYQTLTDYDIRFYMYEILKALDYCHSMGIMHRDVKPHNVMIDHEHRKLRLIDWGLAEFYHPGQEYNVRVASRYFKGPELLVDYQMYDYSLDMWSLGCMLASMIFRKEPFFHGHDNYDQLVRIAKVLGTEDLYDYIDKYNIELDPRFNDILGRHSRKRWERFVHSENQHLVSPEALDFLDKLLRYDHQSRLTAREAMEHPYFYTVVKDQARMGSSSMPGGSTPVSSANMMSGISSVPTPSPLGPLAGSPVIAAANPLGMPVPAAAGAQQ
T1 sequence (P67870 whole entry partner): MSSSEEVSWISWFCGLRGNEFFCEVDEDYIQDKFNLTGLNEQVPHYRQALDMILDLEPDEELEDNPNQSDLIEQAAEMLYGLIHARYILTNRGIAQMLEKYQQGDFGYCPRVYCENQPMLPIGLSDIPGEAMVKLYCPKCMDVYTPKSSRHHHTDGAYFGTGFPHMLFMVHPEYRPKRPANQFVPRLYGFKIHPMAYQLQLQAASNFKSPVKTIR

As for `Clc1ccc(Nc2c3ccncc3nc3c2[nH]c2cnccc23)cc1` [Compound 1, N-(4-chlorophenyl)-11H-pyrido[4′,3′:4,5]pyrrolo[3,2-b][1,7]naphthyridin-10-amine], the IC50 in [1] is 5 nM; in the experiment on H1299 (lung), 2400 nM; in the experiment with MCF7 (breast), 8500 nM; in the experiment on HCT116 (colon) it was 1500 nM; in the experiment with HL60 (leukemia), 3100 nM; in the experiment on A375 (melanoma) it was 3400 nM. Also, the figures for the IC50 in the experiment on MDA-MB-231 (breast), in the experiment with MIAPaCa-2 (pancreas) and with PC3 (prostate) were 5200 nM, 1600 nM and 1300 nM, respectively.
